Reference: patent US5270302A, “Derivatives of tetrapeptides as CCK agonists” (priority 1991, dated 1993)
Where two headings read alike, the source gives them in different places. *1 amine or outer side, *2 acyl side, *3 side chain or, on linkers, in order; H or OH if unused. Where a SMILES comes first, the peptide text is derived from it. Side-chain parts run from the residue outwards. [ ]: non-standard residue; d: D form. The star is where a group is joined. ξ: configuration not given here. NMeW = CN[C@@H](Cc1c[nH]c2ccccc12)C(=O)O; ξαMeW = CC(N)(Cc1c[nH]c2ccccc12)C(=O)O; 1Nal = N[C@@H](Cc1cccc2ccccc12)C(=O)O; Desaminotyrosyl = O=C(CCc1ccc(O)cc1)*; X12 = O=C(C=Cc1ccc(C(F)(F)F)cc1)*; NMeF = CN[C@@H](Cc1ccccc1)C(=O)O; NMeD = CN[C@@H](CC(=O)O)C(=O)O; NH(2-Me-phenyl) = Cc1ccccc1N*; X1 = O=C(C=Cc1ccc(O)cc1)*; 3Abz = Nc1cccc(C(=O)O)c1; 2Abz = Nc1ccccc1C(=O)O; X15 = Clc1cccc(N*)c1Cl; Boc = CC(C)(C)OC(=O)*; CO = O=C([*:1])[*:2]; X2 = C1CN(CCO*)CCO1; NHtBu = CC(C)(C)N*; Moc = COC(=O)*

Assays:
Type-A CCK receptor = target: T1, Type-A CCK receptor (Cavia porcellus, UniProt Q63931); experiment: Radioligand binding of [125I]BH-CCK-8 in guinea pig pancreatic membrane preparations
T1 construct: Cortical and pancreatic membranes were prepared as described; from tissue; host or cells: guinea pig pancreas membranes
T1 sequence (Q63931 1-430): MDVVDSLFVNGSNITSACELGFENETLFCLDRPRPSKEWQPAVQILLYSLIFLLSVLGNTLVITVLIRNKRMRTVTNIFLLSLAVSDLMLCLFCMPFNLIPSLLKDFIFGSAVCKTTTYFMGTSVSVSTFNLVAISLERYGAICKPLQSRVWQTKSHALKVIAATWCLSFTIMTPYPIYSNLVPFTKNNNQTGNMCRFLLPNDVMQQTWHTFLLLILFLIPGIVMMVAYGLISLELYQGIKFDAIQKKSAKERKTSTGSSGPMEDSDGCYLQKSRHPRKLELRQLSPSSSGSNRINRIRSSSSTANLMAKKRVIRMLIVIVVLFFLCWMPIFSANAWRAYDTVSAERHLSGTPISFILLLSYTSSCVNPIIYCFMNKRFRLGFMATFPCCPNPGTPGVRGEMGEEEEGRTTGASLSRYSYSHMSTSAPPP
Excerpt: (§1) CCK-8 [Asp-Tyr(SO3 H)-Met-Gly-Trp-Met-Asp-PheNH2 ], bestatin and phosphoramidion were purchased from Peptide International (Louisville, Ky.). EGTA (ethylene glycol-bis-(β-aminoethyl) N,N,N',N'-tetraacetic acid), HEPES (4-(2-hydroxyethyl)-1-piperazine-enthanesulfonic acid) and BSA (bovine serum albumin) were purchased from Sigma Chemical Co. (St. Louis, Mo.). [^125 I]-Bolton-Hunteer (BH-CCK-8) (specific activity, 2200 Ci/mmol) was obtained from New England Nuclear (Boston, Mass.). Male guinea pigs, 250 to 325 g, were obtained from Scientific Small Animal Laboratory and Farm (Arlington Heights, Ill.). Collagenase, code CLSPA was purchased from Worthington (Frehold, N.J.).
(§2) Protocol For Radioligand Binding Experiments in Guinea Pig Cerebral Cortical and Pancreatic Membrane Preparations
(§3) Cortical and pancreatic membranes were prepared as described (Lin and Miller; J. Pharmacol. Exp. Ther. 1985, 232:775-780,). In brief, cortex and pancreas were removed and rinsed with ice-cold saline. Visible fat and connective tissues were removed from the pancreas. […] The homogenates were entrifuged for 10 minutes at 1075×g and pellets were discarded. The supernatants were saved and centrifuged at 38,730×g for 20 minutes. The resultant pellets were rehomogenized in 25 mL of 50 mM Tris-HCl buffer with a Teflon-glass homogenizer, 5 up and down strokes. The homogenates were centrifuged again at 38,730×g for 20 minutes. Pellets werre then resuspended in 20 mM HEPES, containing 1 mM EGTA, 118 mM NaCl, 4.7 mM KCl, 5 mM MgCl2, 100 μM bestatin, 3 μM phosphoramidon, pH 7.4 at 22° C. with a Teflon-glass homogenizer, 15 up and down strokes. Resuspension volume for the cortex was 15-18 mL per gram of original wet weight and 60 mL per gram for the pancreas.
(§4) [^125 I]Bolton-Hunter CCK-8 and test compounds were diluted with HEPES-EGTA-salt buffer (see above) containing 0.5% BSA. To 1 mL Skatron polystyrene tubes were added 25 μL of test compounds, 25 μL of [^125 I]BH-CCK-8 and 200 μL of membrane suspension. The final BSA concentration was 0.1%. The cortical tissues were incubated at 30° C. for 150 minutes and pancreatic tissues were incubated at 37° C. for 150 min. Incubations were terminated by filtration using Skatron Cell Harvester and SS32 microfiber filter mats. […] IC50 s were determined from the Hill analysis.

Type-B CCK receptor = target: T2, Type-B CCK receptor (Cavia porcellus, UniProt H0VZC5); experiment: Radioligand binding of [125I]BH-CCK-8 in guinea pig cerebral cortical membrane preparations
T2 construct: Cortical and pancreatic membranes were prepared as described; from tissue; host or cells: guinea pig cerebral cortex membranes
T2 sequence (H0VZC5 1-426): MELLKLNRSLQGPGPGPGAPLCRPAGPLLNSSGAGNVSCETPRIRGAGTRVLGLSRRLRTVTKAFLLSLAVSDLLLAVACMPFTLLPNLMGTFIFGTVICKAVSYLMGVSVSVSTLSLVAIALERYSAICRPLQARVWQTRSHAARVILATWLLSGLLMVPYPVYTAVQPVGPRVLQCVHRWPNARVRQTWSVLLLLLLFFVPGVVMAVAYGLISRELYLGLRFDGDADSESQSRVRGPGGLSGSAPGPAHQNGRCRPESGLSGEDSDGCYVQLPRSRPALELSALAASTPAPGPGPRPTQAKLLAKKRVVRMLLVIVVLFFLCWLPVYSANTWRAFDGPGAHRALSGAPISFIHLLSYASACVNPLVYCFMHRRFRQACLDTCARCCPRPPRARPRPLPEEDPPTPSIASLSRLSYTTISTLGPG
Excerpt: as §1, §2, §3, §4

[1] = guinea pig pancreatic membranes, 37° C., 150 min, read-out: IC50 (nM) 125I-BH-CCK-8 Type-A receptor
[2] = guinea pig cortical membranes, 30° C., 150 minutes, read-out: IC50 (nM) 125I-BH-CCK-8 Type-B receptor
[3] = IC50 (nM) 125I-BH-CCK-8 Type-A receptor, guinea pig pancreatic membranes, 37° C., 150 min
[4] = IC50 (nM) 125I-BH-CCK-8 Type-B receptor, guinea pig cortical membranes, 30° C., 150 minutes

Row | IC50 (Type-A CCK receptor; [1]) [nM] | IC50 (Type-B CCK receptor; [2]) [nM] | SMILES | further results
1 | – | – | Cc1ccccc1NC(=O)NCCCC[C@H](NC(=O)[C@H](Cc1c[nH]c2ccccc12)NC(=O)NC(C)(C)C)C(=O)N[C@@H](CC(=O)O)C(=O)N(C)[C@@H](Cc1ccccc1)C(N)=O [Example 82, t-Butylaminocarbonyl-Trp-Lys(ε-N-(2-methylphenyl)aminocarbonyl)-Asp(NMe)PheNH2] ({NHtBu-CO}-WK([CO-NH(2-Me-phenyl)])D[NMeF]-NH2) | IC50 (Type-A CCK receptor): 4.9 nM; IC50 (Type-B CCK receptor): 4400 nM
2 | – | – | COC(=O)N[C@@H](Cc1c[nH]c2ccccc12)C(=O)N[C@@H](CCCCNC(=O)Nc1ccccc1C)C(=O)N[C@@H](CC(=O)O)C(=O)N(C)[C@@H](Cc1ccccc1)C(N)=O [Example 80, Methoxycarbonyl-Trp-Lys(ε-N-(2-methylphenyl)aminocarbonyl)-Asp-(NMe)PheNH2] (Moc-WK([CO-NH(2-Me-phenyl)])D[NMeF]-NH2) | IC50 (Type-A CCK receptor): 4.8 nM; IC50 (Type-B CCK receptor): 5200 nM
3 | 14 | 2500 | Cc1ccccc1NC(=O)NCCCC[C@H](NC(=O)CCc1c[nH]c2ccccc12)C(=O)N(C)[C@@H](CC(=O)O)C(=O)N(C)[C@@H](Cc1ccccc1)C(N)=O [Example 102] | –
4 | – | – | Cc1ccccc1NC(=O)NCCCC[C@H](NC(=O)[C@H](Cc1c[nH]c2ccccc12)NC(=O)OC(C)(C)C)C(=O)N[C@@H](CC(=O)OCCN1CCOCC1)C(=O)N(C)[C@@H](Cc1ccccc1)C(N)=O [Example 120, t-BOC-Trp-Lys(ε-N-(2-methylphenyl)aminocarbonyl)-Asp(β-2-(1-morpholino)ethyl)-(NMe)PheNH2] (Boc-WK([CO-NH(2-Me-phenyl)])D(X2)[NMeF]-NH2) | IC50 (Type-A CCK receptor): 26 nM; IC50 (Type-B CCK receptor): 13000 nM
5 | 33 | 1200 | CC(C)(C)OC(=O)N[C@@H](Cc1c[nH]c2ccccc12)C(=O)N[C@@H](CCCCNC(=O)CCc1ccc(O)cc1)C(=O)N[C@@H](CC(=O)O)C(=O)N[C@@H](Cc1cccc2ccccc12)C(N)=O [Example 21, t-BOC-Trp-Lys(ε-N-(3-(4-hydroxyphenyl)propionyl))-Asp-α-NalNH2] (Boc-WK(Desaminotyrosyl)D[1Nal]-NH2) | –
6 | 20 | 4500 | Cc1ccccc1NC(=O)NCCCC[C@H](NC(=O)C(F)Cc1c[nH]c2ccccc12)C(=O)N[C@@H](CC(=O)O)C(=O)N[C@@H](Cc1ccccc1)C(N)=O (stereo partly shown) [Example 63, 2-Fluoro-3-(indol-3-yl)propionyl-Lys(ε-N-(2-methylphenyl)aminocarbonyl)-Asp-PheNH2] | –
7 | – | – | CC(=O)N[C@@H](Cc1c[nH]c2ccccc12)C(=O)N[C@@H](CCCCNC(=O)Nc1ccccc1C)C(=O)N(C)[C@@H](CC(=O)O)C(=O)N[C@@H](Cc1ccccc1)C(N)=O [Example 86, Acetyl-Trp-Lys(ε-N-(2-methylphenyl)aminocarbonyl)-(NMe)Asp-PheNH2] (Ac-WK([CO-NH(2-Me-phenyl)])[NMeD]F-NH2) | IC50 (Type-A CCK receptor; [3]): 6.7 nM; IC50 (Type-B CCK receptor; [4]): > 10000 nM
8 | – | – | Cc1ccccc1NC(=O)NCCCC[C@H](NC(=O)C(C)(N)Cc1c[nH]c2ccccc12)C(=O)N[C@@H](CC(=O)O)C(=O)N(C)[C@@H](Cc1ccccc1)C(N)=O (single isomer, unassigned; isomer a) [Example 98, (α-Methyl)Trp-Lys(ε-N-(2-methylphenyl)aminocarbonyl)-Asp-(NMe)PheNH2 (Isomer A)] | IC50 (Type-A CCK receptor; [3]): 4.9 nM; IC50 (Type-B CCK receptor; [4]): 3200 nM
9 | – | – | CN[C@@H](Cc1c[nH]c2ccccc12)C(=O)N[C@@H](CCCCNC(=O)Nc1ccccc1C)C(=O)N(C)[C@@H](CC(=O)O)C(=O)N[C@@H](Cc1cccc2ccccc12)C(N)=O [Example 100, (NMe)Trp-Lys(ε-N-(2-methylphenyl)aminocarbonyl)-(NMe)Asp-α-NalNH2] (H-[NMeW]K([CO-NH(2-Me-phenyl)])[NMeD][1Nal]-NH2) | IC50 (Type-A CCK receptor; [3]): 8 nM; IC50 (Type-B CCK receptor; [4]): 12000 nM
10 | 15 | > 10000 | Cc1ccccc1NC(=O)NCCCC[C@H](NC(=O)C(F)Cc1c[nH]c2ccccc12)C(=O)N(C)[C@@H](CC(=O)O)C(=O)N[C@@H](Cc1ccccc1)C(N)=O (stereo partly shown) [Example 109, (2-Fluoro-3-(3-indolyl)propionyl)-Lys(ε-N-(2-methylphenyl)aminocarbonyl)-(NMe)Asp-PheNH2] | –
11 | – | – | Cc1ccccc1NC(=O)NCCCC[C@H](NC(=O)C(C)(Cc1c[nH]c2ccccc12)NC(=O)OC(C)(C)C)C(=O)N[C@@H](CC(=O)O)C(=O)N[C@@H](Cc1ccccc1)C(N)=O (stereo partly drawn) [Example 96, t-BOC-D,L-(α-methyl)Trp-Lys(ε-N-(2-methylphenyl)aminocarbonyl)-Asp-PheNH2] (Boc-[ξαMeW]K([CO-NH(2-Me-phenyl)])DF-NH2) | IC50 (Type-A CCK receptor; [3]): 16 nM; IC50 (Type-B CCK receptor; [4]): 9300 nM
12 | 200 | 5300 | CC(C)(C)OC(=O)N[C@@H](Cc1c[nH]c2ccccc12)C(=O)N[C@@H](CCCCNC(=O)C=Cc1ccc(C(F)(F)F)cc1)C(=O)N[C@@H](CC(=O)O)C(=O)N[C@@H](Cc1ccccc1)C(N)=O [Example 8, t-BOC-Trp-Lys(ε-N-(4-trifluoromethylcinnamoyl))-Asp-PheNH2] (Boc-WK(X12)DF-NH2) | –
13 | – | 1400 | COC(=O)c1cccc(NC(=O)NCCCC[C@H](NC(=O)[C@H](Cc2c[nH]c3ccccc23)NC(=O)OC(C)(C)C)C(=O)N[C@@H](CC(=O)O)C(=O)N[C@@H](Cc2ccccc2)C(N)=O)c1 [Example 46, t-BOC-Trp-Lys(ε-N-(3-(methoxycarbonyl)phenyl)aminocarbonyl)-Asp-PheNH2] (Boc-WK([CO-3Abz-OMe])DF-NH2) | –
14 | – | – | COC(=O)c1ccccc1NC(=O)NCCCC[C@H](NC(=O)[C@H](Cc1c[nH]c2ccccc12)NC(=O)OC(C)(C)C)C(=O)N[C@@H](CC(=O)O)C(=O)N[C@@H](Cc1ccccc1)C(N)=O [Example 45, t-BOC-Trp-Lys(ε-N-(2-(methoxycarbonyl)phenyl)aminocarbonyl)-Asp-PheNH2] (Boc-WK([CO-2Abz-OMe])DF-NH2) | IC50 (Type-B CCK receptor): 3000 nM
15 | – | 2900 | CC(C)(C)OC(=O)N[C@@H](Cc1c[nH]c2ccccc12)C(=O)N[C@@H](CCCC/N=C(\S)Nc1ccccc1Cl)C(=O)N[C@@H](CC(=O)O)C(=O)N[C@@H](Cc1ccccc1)C(N)=O [Example 37, t-BOC-Trp-Lys(ε-N-(2-chlorophenyl)aminothiocarbonyl)-Asp-PheNH2] | –

Row | SMILES | IC50 (Type-A CCK receptor; [1]) [nM] | IC50 (Type-B CCK receptor; [2]) [nM] | further results
16 | CC(C)(C)OC(=O)N[C@@H](Cc1c[nH]c2ccccc12)C(=O)N[C@@H](CCCCNC(=O)Nc1cccc(Cl)c1Cl)C(=O)N[C@@H](CC(=O)O)C(=O)N[C@@H](Cc1ccccc1)C(N)=O [Example 125, t-BOC-Trp-Lys(ε-N-(2,3-dichlorophenyl)aminocarbonyl)-Asp-PheNH2] (Boc-WK([CO-X15])DF-NH2) | 2.8 | > 10000 | –
17 | CN(C(=O)[C@H](CCCCNC(=O)C=Cc1ccc(O)cc1)NC(=O)[C@H](Cc1c[nH]c2ccccc12)NC(=O)OC(C)(C)C)[C@@H](CC(=O)O)C(=O)N[C@@H](Cc1ccccc1)C(N)=O [Example 71, t-BOC-Trp-Lys(ε-N-(4-hydroxycinnamoyl))-(NMe)Asp-PheNH2] (Boc-WK(X1)[NMeD]F-NH2) | 4.9 | 5800 | –
